“Also recorded” adds a separate entry of the source.
Experiments:
[1] = test system: A2780 ovarian carcinoma cells; assay: Gene expression profiling (RNAseq) of A2780 cells; assay type: cell-based, human
Source text: FIG. 7: Schematic representation of KEGG p53 pathway-related genes and their cellular roles.
Activation of p53 occurs in response to DNA damage (so called “DNA damage response”, DDR) or ribosomal stress (RS) and conveys signals that arrest cell cycle and induce cell death.
This group entailed the following gene transcripts: ZFAND2A; KCTD10; MDM2; PLK2; DDIT3; DNAJB9; PSMD6; RYBP; PSMD10; SPSB3; PSMB8; PELI1; RNF103; DNAJB2; UBE2H; ATXN3; PSEN1; RCHY1; UBR1; ANAPC16; JKAMP; DDA1; PSMA6; TMUB2; TRIM72; SPOPL; UBE2J1; ARIH1; NPLOC4; CDC26; USP19; UFD1; TNFAIP1; PSMB6; DERL1; UBE2V2; SELENOS; PSMA1; UBE2.

[2] = test system: BRO melanoma cells; assay: MTT conversion assay, BRO; assay type: cell-based, human; conditions: Homo sapiens, 48 hrs treatment
Experimental: (§1) In particular, Enone-1 and Enone-2 were tested for cytotoxic activity in 17 cell lines representing a broad spectrum of human tumors. They include human colorectal carcinoma (Caco2, RKO, HCT15, HT29), liver (HepG2), lung (A549), ovarian carcinoma (A2780, 2780CP, AGE60, SKOV3), anaplastic large cell lymphoma (Mac1 and Mac2a), breast carcinoma (MDA-MB-231), cervical (HeLa), bladder cancer (VM-CUB-1), melanoma (BRO), and multiple myeloma (MR20).
(§2) Each assay was performed in triplicate and repeated in 2-3 independent experiments. Specifically, to measure cell survival, 20 μl of 10 mg/ml MTT (3-([…])-2,5-diphenyl tetrazolium bromide; Sigma) was added to each well and the plates were incubated at 37° C. in 5% CO2 for 3 hours. The supernatant was removed and the formed crystals were dissolved in 200 μl dimethyl sulphoxide. The plates were then analysed at 450 nm on a plate reader. Growth inhibition (reduction in survival) was calculated by expressing the differences in optical densities between treatment wells and control wells as a percentage of the control.

[3] = test system: Mac1 anaplastic large cell lymphoma cells; assay: MTT conversion assay, Mac1; assay type: cell-based; conditions: Homo sapiens, Mac1, ALCL, 48 hrs treatment
Experimental: as §1, §2

[4] = test system: A549 lung cells; assay: MTT conversion assay, A549; assay type: cell-based, human; conditions: Homo sapiens, 48 hrs treatment
Experimental: as §1, §2

[5] = test system: p53; assay: siRNA knockdown of Chek2 or Rpl11 and drug-induced p53 activation in A2780 cells; assay type: cell-based, human; conditions: A2780 transiently transfected with siRNAs
Experimental: FIG. 9. […] A2780 cells were cultured for 6 hrs in the presence of drug concentrations as indicated. (B) Effects of siRNA targeting RPL11 (siRPL11), Chek2 (siChek2) or the unrelated luciferase (Luci) genes on RPL11 and Chek2 mRNA levels quantified by RT-PCR. (C) Effects of siRpl11 on Enone-2 and oxaliplatin (OXA)-induced p53 activation. Expression levels relative to GAPDH are indicated; untreated controls (CNT) were given the arbitrary value of 1. […] Expression levels relative to GAPDH are indicated; untreated controls (CNT) were given the arbitrary value of 1.
To further validate this observation, A2780 cells were transiently transfected with siRNAs targeting Chek2 which is required for DDR-induced p53, or Rpl11 which is required for RS-mediated p53 activation. The efficacy and specificity of the knockdowns were confirmed by RT-qPCR (FIG. 9B).

[6] = test system: Mac2a anaplastic large cell lymphoma cells; assay: MTT conversion assay, Mac2a; assay type: cell-based; conditions: Homo sapiens, ALCL, 48 hrs treatment
Experimental: as §1, §2

[7] = test system: p53; assay: p53 immunoblot in A2780 cells; assay type: cell-based, human; conditions: 2.5 μM or increasing concentrations, 6 hrs or time course
Experimental: FIG. 8: Enones induce the p53 pathway. […] Cell lysates were analyzed for p53 and GAPDH (loading control). (B) A2780 cells were cultured in the presence or absence of 2.5 μM for the indicated time points before being analyzed for p53 and GAPDH levels. (C) Treatment of A2780 cells with 2.5 μM Enone-2 results in the up-regulation of p53-regulated genes (*p<0.05; **p<0.01; ***p<0.001, n=4). (D) Induction of p53 accumulation in AGE60 ovarian carcinoma cells following 6 or 14 hr exposure to 2.5 μM Enone-2. (E) Enone-1 induces the p53 pathway in A2780 cells which were cultured in the presence of 2.5 μM of the drug and analyzed as in (B). (F) Treatment of A2780 cells with 2.5 μM Enone-2 results in the up-regulation of p53-regulated genes (*p<0.05; **p<0.01; ***p<0.001, n=3).
The effects of Enone-2 on p53 and p53-dependent transcription of cell cycle and cell death-associated genes was confirmed by immunoblotting for p53 and by reverse transcription qPCR (RT-qPCR) for mdm2, p21, bax and bbc3/puma, established p53 target genes.

[8] = test system: CDC6; assay: CDC6 protein (immunoblot) and RNA (RT-qPCR) levels in A2780 cells; assay type: cell-based, human; conditions: 2.5 μM for 6 or 14 hours
Experimental: FIG. 4. Effects of Enone-2 on cell cycle and on the expression levels of replication licensing factors (RLF). (A) Representative cell cycle profiles showing progressive accumulation of A2780 ovarian carcinoma cells in the G2/M phase of the cell cycle following 24 hour treatment with 2.5 or 5 μM Enone-2. Quantification of results is shown in the form of pie charts on the right. PI: propidium iodide. (B) & (C) A2780 cells were treated with 2.5 μM Enone-2 for 6 or 14 hours and analyzed for CDC6 protein levels by immunoblot (B), or RNA levels by reverse transcription qPCR (C). The RNA levels of the RLF CDT1 were also measured by qPCR (C). ***P<0.001; **P<0.01.
Replication licensing factors (RLF) such as CDC6, MCM2-MCM7, ORC and CDT1 form origins of DNA replication in the G1 phase of the cell cycle and initiate DNA replication during the S phase. CDC6 is also involved in S-M checkpoint mechanisms that ensure that the entire genome is replicated just once per cell division. Cancer cells frequently display deregulated expression of RLFs; for example, CDC6 is over-expressed in colorectal and ovarian carcinoma and is associated with poor patient prognosis. […] Because of these characteristics, RLFs are considered as novel targets for anti-cancer therapy. […]

C[C@@]1(O)C=CC(=O)[C@H]1c1ccc(F)c2ccccc12 (stereo in doubt) [Enone-2, 5-(4-fluoronaphthalen-1-yl)-4-hydroxy-4-methylcyclopent-2-en-1-one]
transcripts of proteasome-mediated ubiquitin-dependent protein catabolic process ([1]; 2.5 μM for 6 hours, bioinformatic analysis): enrichment of up-regulated transcripts
p53 pathway activation (gene expression profiling) ([1]; 2.5 μM for 6 hrs or 14 hrs): activation of the p53 pathway
IC50 [2]: 3.8 µM
IC50 [3]: 1800 nM
IC50 [4]: 1500 nM
effect of Chek2 or Rpl11 siRNA knockdown on drug-induced p53 activation [5]: only Rpl11 knockdown that affected Enone-2 mediated p53 activation
IC50 [6]: 2300 nM
p53 accumulation (immunoblot) [7]: robust p53 accumulation; also recorded: robustly induced p53 accumulation
CDC6 RNA and protein levels [8]: reduce the key RLF CDC6 in a time-dependent manner at both RNA and protein levels

From patent publication US20250268844A1, “ANTICANCER AGENTS BASED ON CYCLOPENTENONES” (UNIVERSITY OF CRETE, priority 2022, published 2025)
